Assay [1] has as its target T1, Serine/threonine-protein kinase PKH2 [1-944] (Candida albicans (strain SC5314 / ATCC MYA-2876), UniProt Q5A3P6).
T1 construct: 1-944
T1 sequence (Q5A3P6 whole entry): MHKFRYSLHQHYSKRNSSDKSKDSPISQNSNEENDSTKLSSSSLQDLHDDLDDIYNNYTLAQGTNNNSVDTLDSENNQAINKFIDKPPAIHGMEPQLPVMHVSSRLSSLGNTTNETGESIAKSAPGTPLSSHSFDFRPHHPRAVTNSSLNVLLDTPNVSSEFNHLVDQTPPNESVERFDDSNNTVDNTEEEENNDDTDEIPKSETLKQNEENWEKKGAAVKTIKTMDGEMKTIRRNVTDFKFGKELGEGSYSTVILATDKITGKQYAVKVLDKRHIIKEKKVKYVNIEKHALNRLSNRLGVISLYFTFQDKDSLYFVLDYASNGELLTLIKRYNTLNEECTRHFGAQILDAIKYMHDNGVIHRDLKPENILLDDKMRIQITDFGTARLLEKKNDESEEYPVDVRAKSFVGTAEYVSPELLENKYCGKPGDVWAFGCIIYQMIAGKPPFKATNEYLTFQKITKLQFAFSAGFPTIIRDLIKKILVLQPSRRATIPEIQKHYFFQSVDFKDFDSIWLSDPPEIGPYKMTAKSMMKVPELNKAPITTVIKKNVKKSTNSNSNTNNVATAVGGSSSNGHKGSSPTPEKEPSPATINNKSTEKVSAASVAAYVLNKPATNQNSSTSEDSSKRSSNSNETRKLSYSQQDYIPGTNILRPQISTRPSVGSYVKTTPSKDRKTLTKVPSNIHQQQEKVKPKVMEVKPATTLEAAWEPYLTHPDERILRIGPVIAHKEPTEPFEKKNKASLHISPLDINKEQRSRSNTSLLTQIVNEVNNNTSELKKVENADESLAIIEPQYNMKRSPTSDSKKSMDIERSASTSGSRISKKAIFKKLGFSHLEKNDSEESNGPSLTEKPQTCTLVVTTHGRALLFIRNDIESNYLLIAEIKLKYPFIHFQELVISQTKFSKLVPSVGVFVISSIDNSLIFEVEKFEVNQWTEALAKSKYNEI
Put plainly: AlphaScreen Assay. The following applies: pH 7.4. As for the experimental part:
(§1) The AlphaScreen Assay (Perkin Elmer) was performed according to the manufacturer's protocol in 384-well microtiter plates. Incubations were performed in white 384-well microtiter plates containing 20uL of a reaction mix (50mM Tris-HCl pH 7.4, 100mM NaCl, 1mM dithiotreitol, 0.01% (v/v) Tween-20, 0.1% (w/v) BSA, 1mM DMSO, 100nM His-CaPkh2 or 100nM His-PDK1, 50nM Biotin-PIFtide, and the indicated concentrations of unlabeled PIF-tide or small compounds) and 5uL of beads. 5uL of beads solution containing nickel chelate-coated acceptor beads and streptavidin-coated donor beads (20ug/mL final concentrations) was added to the reaction mix. The reaction mix and the beads were incubated in the dark for 45 min at RT and the emission of light from the acceptor beads was measured in the EnVision reader (Perkin Elmer) and analyzed using the GraphPad Prism software.

The target in assay [2] is T2, 3-phosphoinositide-dependent protein kinase 1 (Homo sapiens, UniProt O15530).
T2 sequence (O15530 whole entry): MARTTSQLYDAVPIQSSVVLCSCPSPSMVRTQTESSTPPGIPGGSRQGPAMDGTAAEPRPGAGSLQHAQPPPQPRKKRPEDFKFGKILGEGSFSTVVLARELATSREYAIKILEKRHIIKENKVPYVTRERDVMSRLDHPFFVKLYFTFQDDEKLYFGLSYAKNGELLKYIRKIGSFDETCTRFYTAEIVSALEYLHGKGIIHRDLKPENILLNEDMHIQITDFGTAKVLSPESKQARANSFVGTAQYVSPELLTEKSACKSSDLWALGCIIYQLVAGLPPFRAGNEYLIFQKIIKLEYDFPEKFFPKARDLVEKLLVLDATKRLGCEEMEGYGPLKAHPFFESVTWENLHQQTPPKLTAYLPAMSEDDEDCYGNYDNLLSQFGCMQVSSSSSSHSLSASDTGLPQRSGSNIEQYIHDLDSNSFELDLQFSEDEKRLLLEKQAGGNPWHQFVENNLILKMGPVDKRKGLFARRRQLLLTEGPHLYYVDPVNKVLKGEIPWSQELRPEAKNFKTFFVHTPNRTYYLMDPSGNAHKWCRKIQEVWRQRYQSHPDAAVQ
Put plainly: AlphaScreen Assay. The following applies: pH 7.4; room temperature. The method, then:
as §1

For assay [3], the target named is T1, Serine/threonine-protein kinase PKH2 [1-944]. Put plainly: Protein Kinase Activity Assay. The following applies: pH 7.4; 0 °C. As for the experimental part:
(§2) A 20ul mix containing 50mM Tris pH 7.5, 0.05mg/ml BSA, 0.1% β-mercaptoethanol, 10mM MgCl2, 100μM [γ-P32]ATP (5-50cpm/pmol), 0.003% Brij, 150-500ng PDK1 or CaPkh2, and T308tide (from 0.1 to 1mM) was pre-incubated at room temperature (22¿C) for 15 minutes. The kinase reaction was initiated by the addition of the ATP-Mg mixture, followed by the addition of 5μl phosphoric acid (final concentration 0.01%) to stop the reaction. The PDK1 activity assay was performed in a 96 well format and 4μl aliquots spotted on p81 phosphocellulose papers (Whatmann) using ep motion 5070 (Eppendorf), washed in 0.01% phosphoric acid, dried, and then exposed and analyzed using PhophoImager technology (FLA-9000 Starion, Fujifilm). The specific activity of CaPkh2 and PDK1 was estimated using 100μM T308tide.

Assay [4] addresses T2, 3-phosphoinositide-dependent protein kinase 1. Description: Protein Kinase Activity Assay. The conditions noted are these: pH 7.4; 0 °C. The method, then:
as §2

Structures are written as SMILES.

In assay [1] (room temperature), `O=C(O)CSC(CC(=O)c1ccc(Cl)cc1)c1ccccc1` (stereo not drawn) displayed a 50% effective concentration (EC50) of 85 µM.
For the compound `O=C(C[C@@H](c1ccccc1)C(C(=O)O)C(=O)O)c1ccc(C(F)(F)F)cc1`, the results for the EC50 in assay [1] (room temperature) and in assay [2] were 60 µM and 39 µM, respectively.
As for `O=C(O)CSC(CC(=O)c1ccc(Cl)cc1)c1ccccc1Sc1ccc(Cl)cc1` (stereo not drawn) [PS77], the 50% inhibitory concentration (IC50) in assay [3] stood at 17 µM; in assay [4], 38 µM. This compound also showed an EC50 in assay [1] of 44 µM.
Regarding `O=C(CC(c1ccccc1)C(C(=O)O)C(=O)O)c1ccc(Cl)cc1` (stereo not drawn) [PS182], the concentration for a half-maximal effect (EC50) in assay [1] (room temperature) is 66 µM; in assay [2] it was 26 µM.

The values are drawn from BindingDB's records for doi:10.1021/cb400452z (2013).
